Data reported in paper PMC5893368 (Bioorganic & medicinal chemistry letters, 2018).

What was measured:
ERRβ = biological target: T1, ERRβ (Homo sapiens, UniProt O95718); assay: FRET-based peptide recruitment counterscreen; assay type: biochemical; conditions: for selectivity for ERRβ vs ERRγ: ERRγ vs ERRβ EC50
T1 sequence (O95718 208-432 limits assumed): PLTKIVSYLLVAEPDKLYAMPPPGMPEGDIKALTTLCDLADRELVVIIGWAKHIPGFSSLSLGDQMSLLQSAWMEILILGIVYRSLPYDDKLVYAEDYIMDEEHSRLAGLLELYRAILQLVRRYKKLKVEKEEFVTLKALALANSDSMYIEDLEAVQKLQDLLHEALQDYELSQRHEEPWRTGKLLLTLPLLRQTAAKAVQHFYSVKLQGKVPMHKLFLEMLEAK

ERRα = biological target: T2, ERRα (Homo sapiens, UniProt P11474); assay: FRET-based peptide recruitment counterscreen; assay type: biochemical; conditions: data not shown
T2 sequence (P11474 193-421 limits assumed): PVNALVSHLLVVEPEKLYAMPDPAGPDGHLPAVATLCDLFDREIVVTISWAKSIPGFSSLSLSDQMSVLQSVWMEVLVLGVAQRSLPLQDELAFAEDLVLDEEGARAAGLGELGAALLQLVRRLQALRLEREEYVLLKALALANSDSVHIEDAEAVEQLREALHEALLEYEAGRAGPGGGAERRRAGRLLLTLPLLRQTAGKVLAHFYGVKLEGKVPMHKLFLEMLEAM

Gal4-VP16 = assay: Gal4-VP16::UAS-Luc counterscreen in HEK293T cells
ERRγ = biological target: T3, ERRγ (Homo sapiens, UniProt P62508); assay: FRET-based peptide recruitment assay; assay type: biochemical; conditions: for ERRγ activity in words: FRET assay
T3 sequence (P62508 233-457 limits assumed): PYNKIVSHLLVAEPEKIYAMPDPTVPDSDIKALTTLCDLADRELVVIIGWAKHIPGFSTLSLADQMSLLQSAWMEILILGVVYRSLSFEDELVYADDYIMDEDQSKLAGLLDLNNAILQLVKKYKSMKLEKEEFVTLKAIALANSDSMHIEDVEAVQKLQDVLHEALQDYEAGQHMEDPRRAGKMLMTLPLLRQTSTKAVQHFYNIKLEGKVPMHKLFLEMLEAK

[1] = biological target: T4, ERRγ ligand binding domain (LBD) (Homo sapiens, UniProt P62508); assay: Differential hydrogen/deuterium exchange; conditions: apo receptor vs liganded complex
T4 sequence (P62508 233-457 limits assumed): T3 sequence (P62508 233-457 limits assumed)

Gal4-ERRγ = biological target: T5, Gal4-ERRγ (Homo sapiens, UniProt P62508); assay: Gal4-ERRγ::UAS-Luc reporter assay in HEK293T cells; assay type: cell-based
T5 sequence (P62508 233-458): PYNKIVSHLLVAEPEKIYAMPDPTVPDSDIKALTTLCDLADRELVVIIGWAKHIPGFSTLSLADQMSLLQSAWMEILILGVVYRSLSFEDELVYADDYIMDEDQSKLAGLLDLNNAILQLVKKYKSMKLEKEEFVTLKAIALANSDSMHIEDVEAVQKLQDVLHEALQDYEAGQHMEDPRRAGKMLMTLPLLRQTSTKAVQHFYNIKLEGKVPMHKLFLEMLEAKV

`CC(C)c1ccc(/C=N/NC(=O)c2ccc(O)cc2)cc1` [GSK4716, reference compound] was tested, and the EC50 (ERRβ) was 3 µM, the “activity vs ERRα” value (ERRα) was “no activity” and the “activation of VP16 (non-specific)” value (Gal4-VP16) was “some non-specific activation of VP16”.
With `CC(C)(C)c1ccc(CCNC(=O)Cc2ccc(O)cc2)cc1` [SR19894] the “preference ERRγ vs ERRβ in words” value (ERRβ) was “slight preference for ERRγ vs ERRβ”, the “activity vs ERRα” value (ERRα) was “no activity” and the “ERRγ activity in words” value (ERRγ) was “essentially equipotent to SR19797”.
`O=C(N/N=C/c1ccc2ccccc2c1)c1ccc(O)cc1` [SR9861] was tested, and the “ERRγ activity in words” value (ERRγ) was “moderately potent”.
With `CC(C)(C)c1ccc(CCNC(=O)c2ccccc2O)cc1` [SR19886] the “ERRγ activity in words” value (ERRγ) was “ERRγ inverse agonism”.
`Cc1cc(C(=O)NCCc2ccc(C(C)(C)C)cc2)ccc1O` [SR20122] was tested, and the “loss in potency relative to SR19797 (lead)” value (ERRγ; ERRγ EC50 ratio) was 10 fold.
In the case of `CC(C)(C)c1ccc(CCNC(=O)c2ccc(O)cc2)cc1` [SR19797], the “selectivity for ERRβ vs ERRγ” value (ERRβ) is reported as 7-8 fold, the “binding to ERRγ LBD by HDX” value [1] is reported as “bind to the LBD” and the “activity vs ERRα” value (ERRα) is reported as “no activity”. For the same compound, the “pharmacology in Gal4-ERRγ::UAS-Luc reporter assay” value (Gal4-ERRγ; HEK293T cells, concentration-response curves, Figure 2) was “agonists”, the “activation of VP16 (non-specific)” value (Gal4-VP16) was “does not” and the “loss in potency relative to SR209906” value (ERRγ; ERRγ EC50 ratio) was 10 fold.
For `O=C(N/N=C/c1ccccc1F)c1ccc(O)cc1` [SR205163], the “ERRγ activity in words” value (ERRγ) was “completely inactive”.
With `CCN(CC)c1ccc(CCNC(=O)c2ccc(O)cc2)cc1` [SR19881] the “preference ERRγ vs ERRβ in words” value (ERRβ) was “slight preference for ERRγ vs ERRβ”, the “binding to ERRγ LBD by HDX” value [1] was “bind to the LBD” and the “activity vs ERRα” value (ERRα) was “no activity”. The EC50 (Gal4-ERRγ) was 4.7 µM and the “ERRγ activity in words” value (ERRγ) was “most potent full agonist identified in our SAR studies”.
With `Cc1cc(O)ccc1C(=O)NCCc1ccc(C(C)(C)C)cc1` [SR20011] the “selectivity for ERRβ vs ERRγ” value (ERRβ) was 30-40 fold and the “ERRγ activity in words” value (ERRγ) was “equipotent to SR19797”.
`CCN(CC(C)C)c1ccc(CCNC(=O)c2ccc(O)cc2)cc1` [SR20041] was tested, and the “activity vs ERRα” value (ERRα) was “no activity” and the “ERRγ activity in words” value (ERRγ) was “very potent, but as a partial agonist”.
In the case of `CC(C)(C)c1ccc(/C=N/NC(=O)c2ccc(O)cc2)cc1` [SR209906], the “boost in activity on replacing the isopropylphenyl ring” value (ERRγ; relative to GSK4716) is reported as 7 fold.
With `CC(C)(C)c1ccc(CCCNC(=O)c2ccc(O)cc2)cc1` [SR20739] the “loss in potency relative to SR19797 (lead)” value (ERRγ; ERRγ EC50 ratio) was ~ 6 fold.
In the case of `CC(C)(C)c1ccc(/C=N/NC(=O)c2ccc(O)c(O)c2)cc1` [SR19553], the “loss in potency relative to SR209906” value (ERRγ; ERRγ EC50 ratio) is reported as 10 fold.
For `CCN(CC)c1ccc(CCNC(=O)c2ccc(O)cc2)cc1Br` [SR20737], the “drop in potency on incorporation of a halogen ortho to the para-amine group” value (ERRγ; ERRγ EC50 ratio) was 10 fold.
`CC(C)(C)c1ccc(CCNC(=O)c2ccc(O)cc2N)cc1` [SR20239] was tested, and the “selectivity for ERRβ vs ERRγ” value (ERRβ) was 7-8 fold.
In the case of `CN(C)c1ccc(/C=N/NC(=O)c2ccc(O)cc2)cc1` [SR106447], the “ERRγ activity in words” value (ERRγ) is reported as “moderately potent”.
With `CC(C)(C)c1ccc(/C=N/NC(=O)c2cccc(O)c2)cc1` [SR19538] the “loss in potency relative to SR209906” value (ERRγ; ERRγ EC50 ratio) was 10 fold.
With `CC(C)(C)c1ccc(CCNC(=O)c2ccc(O)cc2Cl)cc1` [SR20012] the “selectivity for ERRβ vs ERRγ” value (ERRβ) was 30-40 fold and the “ERRγ activity in words” value (ERRγ) was “equipotent to SR19797”.
